Results: US20260138970A1, “MODULATORS OF THE CALCIUM SIGNALING CASCADE” (FONDAZIONE TELETHON ETS, priority 2022, published 2026)

System: protease-activated receptors
Experiment: Fluo-4 Ca2+ assay, SLIGR-NH2 stimulus, HEKR2 cells
Assay type: cell-based
Settings: SLIGR-NH2 4 μM; compounds 10 μM; FIG. 5C bottom
Protocol: Experiments were performed using the microplate reader described for the HS-YFP assay. FRT and HEK293 cells were cultured until confluence in 96-well microplates (3603, Corning). Cells were washed 2 times with PBS (150 μl/wash) and then loaded for 1 h at 37° C. with 5 μM Fluo-4/AM (Thermo Fisher Scientific; catalog number: F23917) in PBS containing 10 mM glucose, 0.5 mM sulfinpyrazone, and 1% fetal bovine serum. After loading, cells were washed 2 times with PBS-glucose-sulfinpyrazone (150 μl/wash) and incubated for 20 min at 37° C. with 60 μl of PBS plus 10 mM glucose and 0.5 mM sulfinpyrazone containing compounds of interest at 10 μM final concentration or vehicle. Each well was assayed individually. Fluo-4 fluorescence (500 nm excitation, 535 nm emission) was detected every 200 ms for 16-40 s. Two seconds after the start of fluorescence recording, the reader automatically injected 165 μl of a modified PBS containing 136 mM KCl instead of NaCl. This solution also contained 10 mM glucose, 0.5 mM sulfinpyrazone, and UTP or SLIGR-NH2 (CAS #171436-38-7) at a final concentration that depended on the specific cell type. […] The Fluo-4 fluorescence increase was quantified using a procedure compiled in Microsoft Excel after background subtraction and normalization for the initial value measured before UTP addition.

Question: How did the “potentiation of SLIGR-NH2 stimulus (Ca2+ mobilization), HEKR2 cells” value turn out when OCc1ccccc1CN(Cc1ccnc(N2CCCC2)n1)c1ccc(F)cc1 [ARN4550, [2-[[4-Fluoro-N-[(2-pyrrolidin-1-ylpyrimidin-4-yl)methyl]anilino]methyl]phenyl]methanol] was run?
Answer: only compound that potentiated
